Measured values from patent US5445951A, “Regioselective enzymatic deacylation of sucrose esters in anhydrous organic media” (priority 1993, dated 1995).
Where two headings read alike, the source gives them in different places.

What was measured:
[1] = tested on: lipase AY 30; experiment: Effect of the solvent on lipase AY 30 catalyzed deacylation of SOP; format: biochemical, Candida cylindracea; conditions: for ShexaP (4.2 min) / SheptaP's (8.9 min) / SheptaP's (9.4 min) / SheptaP's ([…]): lipase AY 30, 24 hrs; for ShexaP (4.2 min): HPLC peak 4.2 min; for SheptaP's (8.9 min): HPLC peak 8.9 min; for SheptaP's (9.4 min): HPLC peak 9.4 min; for SheptaP's ([…]): HPLC peak […]; for SOA: lipase AY 30, solvent as labelled, 200 mM butanol, 24 hrs, peak 21.4 min; as to SheptaP's ([…]): HPLC peak 8.2 min
Description: Identical SOP deacylations were performed with lipase AY 30 or protease type XXIII in numerous anhydrous organic solvents, as shown in Tables 12 and 13.
(§1) Solvent screening for SOP deacylation. A scintillation vial was charged successively with 100 mg of lipase AY 30 or protease type XXIII as described and 1.0 ml of 20 mM sucrose octapropionate (SOP) and 200mM butanol dissolved in an organic solvent. Following a 5 sec sonication, the vial was incubated in a controlled-temperature shaker at 45° C. and 300 RPM for 24 hrs. A 200 μl aliquot of the reaction mixture was withdrawn and centrifuged. The supernatant was collected and evaporated under a stream of N2. The residue was reconstituted in 200 μl of acetonitrile and 10 μl of this solution was analyzed by HPLC.

[2] = n-octanol/water, cited from earlier work
[3] = tested on: lipase AY 30; experiment: Effect of the solvent on lipase AY 30 SOA deacetylation; format: biochemical, Candida cylindracea; conditions: lipase AY 30, solvent as labelled, 24 hrs
Description: (§2) Identical enzyme catalyzed SOA deacetylations were run in numerous anhydrous solvents. After 24 hrs incubation an aliquot was analyzed by HPLC.
as §1, with “Enzyme and Solvent” for “Solvent”, “Screening” for “screening”, “SOA Deacetylation.” for “SOP deacylation.”, “powdered enzyme as received” for “lipase AY 30”, “prepared” for “protease type XXIII”, “octaacetate (SOA)” for “octapropionate (SOP) and 200mM butanol”

[4] = biological target: T1, alcalase (Bacillus licheniformis, UniProt P00780); experiment: Solvent effect on alcalase catalyzed deacetylation of SOA; format: biochemical; conditions: 24 hrs; for SheptaA: total of 1'-OH and 6'-OH heptaacetates; for SOA / ShexaA: solvent as labelled
T1 construct: purchased Novo Nordisk (gift)
T1 sequence (P00780 106-379): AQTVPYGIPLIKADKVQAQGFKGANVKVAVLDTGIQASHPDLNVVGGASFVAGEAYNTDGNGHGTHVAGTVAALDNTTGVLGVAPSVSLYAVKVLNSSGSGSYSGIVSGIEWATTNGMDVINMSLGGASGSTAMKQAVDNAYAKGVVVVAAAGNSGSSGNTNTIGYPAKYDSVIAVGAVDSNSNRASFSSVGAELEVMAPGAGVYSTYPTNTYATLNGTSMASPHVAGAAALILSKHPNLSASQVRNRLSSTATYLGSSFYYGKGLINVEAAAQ
Description: as §2
Enzyme Precipitation. Alcalase was prepared by adding 37.5 ml cold acetone (-20° C.) to 25 ml of alcalase solution as supplied by Novo. The aqueous acetone was decanted and the residue dissolved in 25 ml of pH 9.0 glycine--NaOH buffer. The pH of this solution was adjusted to 9.0 with a few drops of dilute NaOH solution. Cold acetone (37.5 ml at -20° C.) was added to the buffered alcalase solution and the precipitate collected by filtration on a medium porosity glass funnel and dried overnight at 2 millitorr. The resulting pellet was ground to a fine powder and stored at 4° C. over saturated aqueous potassium carbonate (RH: 43%) for 24 hrs.
as §1, with “Enzyme and Solvent” for “Solvent”, “Screening” for “screening”, “SOA Deacetylation.” for “SOP deacylation.”, “powdered enzyme as received” for “lipase AY 30”, “prepared” for “protease type XXIII”, “octaacetate (SOA)” for “octapropionate (SOP) and 200mM butanol”

[5] = tested on: alcalase deposited on Hyflo Super Cell; experiment: Solvent effect on alcalase deposited on Hyflo Super Cell catalyzed deacetylation of SOA; format: biochemical, Bacillus licheniformis; conditions: immobilized alcalase, 4 hour incubation; for SheptaA: total of 1'-OH and 6'-OH heptaacetates
Description: (§3) Alcalase and lipase AY 30 were deposited on Hyflo Super Cell and used as catalysts for SOA deacetylation reactions in several anhydrous solvents.
(§4) Enzyme immobilization. The pH of a solution of 900 mg of buffered alcalase in 18 ml of water was adjusted to 9.0 with dilute NaOH. Hyflo super cell (6 g) was added and the slurry thoroughly mixed. […] Lipase AY 30 was immobilized in the same manner except that the protein solution was adjusted to pH 7.0 with sodium phosphate.
Enzyme and Solvent Screening for SOA Deacetylation. A scintillation vial was charged successively with 100 mg of powdered enzyme as received or prepared as described and 1.0 ml of 20 mM sucrose octaacetate (SOA) dissolved in an organic solvent. […] A 200 μl aliquot of the reaction mixture was withdrawn and centrifuged. The supernatant was collected and evaporated under a stream of N2. The residue was reconstituted in 200 μl of acetonitrile and 10 μl of this solution was analyzed by HPLC.

[6] = tested on: proleather; experiment: Solvent effect on proleather catalyzed deacetylation of SOA; format: biochemical, Bacillus subtilis; conditions: 24 hrs; for SheptaA: total of 1'-OH and 6'-OH heptaacetates; for SOA / ShexaA: solvent as labelled
Description: as §2
(§5) The pH of commercial powdered enzymes was adjusted in the following way: The enzyme (3 g) was dissolved in 25 ml of an appropriate buffer and the pH adjusted with dilute NaOH or citric/phosphoric acid solution. Cold acetone (37.5 ml at -20° C.) was added and the precipitate collected on a medium porosity glass funnel and dried overnight at 2 millitorr. The protein pellet was ground to a fine powder and equilibrated at 4° C. over saturated aqueous potassium carbonate (RH: 43%) for 24 hrs.
(§6) Enzyme and Solvent Screening for SOA Deacetylation. A scintillation vial was charged successively with 100 mg of powdered enzyme as received or prepared as described and 1.0 ml of 20 mM sucrose octaacetate (SOA) dissolved in an organic solvent. Following a 5 sec sonication, the vial was incubated in a controlled-temperature shaker at 45° C. and 300 RPM for 24 hrs. A 200 μl aliquot of the reaction mixture was withdrawn and centrifuged. The supernatant was collected and evaporated under a stream of N2. The residue was reconstituted in 200 μl of acetonitrile and 10 μl of this solution was analyzed by HPLC.

[7] = tested on: lipase AY 30 deposited on Hyflo Super Cell; experiment: Solvent effect on lipase AY 30 deposited on Hyflo Super Cell catalyzed deacetylation of SOA; format: biochemical, Candida cylindracea; conditions: immobilized lipase AY 30, 24 hrs
Description: as §3, §4, §6

[8] = tested on: lipase AP 12; experiment: Solvent effect on lipase AP 12 catalyzed deacetylation of SOA; format: biochemical, Aspergillus niger; conditions: lipase AP 12, solvent as labelled, 24 hrs
Description: as §2, §5, §6

Structure (SMILES) | ShexaP (4.2 min) [1] [%] | SheptaP's (8.9 min) [1] [%] | SheptaP's (9.4 min) [1] [%] | SheptaP's ([…]) [1] [%] | SOA [1] [%] | log P ([2]; from Laane et al.) | SOA [3] [%] | SheptaA [3] [%] | ShexaA [3] [%] | also measured
CCCCC(=O)CC [3-heptanone] | 0 | 0.8 | 2.9 | 3.3 | 93.0 | 1.8 | 85.1 | 14.9 | – | –
C1CCOC1 [THF, tetrahydrofuran] | 0.3 | 0 | 0.1 | 1.6 | 98.0 | – | 98.7 | 1.3 | 0 | SheptaA [4]: 2.0%; SOA [4]: 98.0%; ShexaA [4]: 0%; SOA [5]: 97.3%; ShexaA [5]: 0%; SheptaA [5]: 2.7%; SheptaA [6]: 2.6%; SOA [6]: 97.4%; ShexaA [6]: 0%; SOA [7]: 98. %; SheptaA [7]: 2.0%; SOA [8]: 98.4%; SheptaA [8]: 1.6%; ShexaA [8]: 0%
c1ccccc1 [benzene] | – | – | – | – | – | – | 97.9 | 1.7 | 0.4 | SheptaA [4]: 6.7%; SOA [4]: 93.3%; ShexaA [4]: 0%; SOA [5]: 97.9%; ShexaA [5]: 0%; SheptaA [5]: 2.1%; SheptaA [6]: 13.9%; SOA [6]: 84.8%; ShexaA [6]: 1.4%; SOA [7]: 97.9%; SheptaA [7]: 2.1%; SOA [8]: 96.6%; SheptaA [8]: 3.4%; ShexaA [8]: 0%
ClC(Cl)Cl [chloroform] | – | – | – | – | – | – | 86.7 | 11.6 | 1.7 | –
C1CCCCC1 [cyclohexane] | 2.8 | 0.4 | 5.2 | 5.6 | 86 | – | – | – | – | –
O=C1CCCCC1 [cyclohexanone] | 0 | 0 | 0.3 | 0.9 | 98.8 | 0.96 | 97.5 | 2.5 | 0 | –
CCCCCOCCCCC [dipentyl ether] | – | – | – | – | – | 3.9 | – | – | – | –
CCCCCCC [heptane] | 6.6 | 0.5 | 4.4 | 8.9 | 79.6 | 4.0 | – | – | – | –
CCCCCC [hexane] | 5.8 | 0.6 | 5.7 | 8.6 | 79.3 | 3.5 | – | – | – | –
CCCCCCCC [octane] | 7.7 | 0.5 | 2.9 | 8.9 | 80.0 | 5.0 | – | – | – | –
CCCCCCCCO [octanol] | 0 | 0 | 1.1 | 1.8 | 97.1 | – | – | – | – | log P [2]: 3.0
CCC(C)(C)OC [t-amyl methyl ether] | – | – | – | – | – | 1.9 | 45 | 37.1 | 17.9 | –
Cc1ccccc1 [toluene] | 0.2 | 0 | 1.2 | 1.3 | 97.3 | – | 78.7 | 16.5 | 4.8 | SheptaA [4]: 6.0%; SOA [4]: 93.8%; ShexaA [4]: 0.2%; SOA [5]: 97.8%; ShexaA [5]: 0%; SheptaA [5]: 2.2%; SheptaA [6]: 15.2%; SOA [6]: 82.8%; ShexaA [6]: 2.0%; SOA [7]: 94.5%; SheptaA [7]: 5.5%; SOA [8]: 94.2%; SheptaA [8]: 5.8%; ShexaA [8]: 0%
